Experimental data reported in patent US6583154B1, “Compounds and methods which modulate feeding behavior and related diseases” (Amgen Inc., priority 1998, dated 2003).
Counter-ions that a name gives are not always drawn.

Tests used:
Long-Evans male rats = test: IP administration of compounds in fasted Long-Evans male rats, 2 hr food intake; type: in vivo; conditions: Rattus norvegicus; male Long Evans rats fasted 18-20 hr; 30 mg/kg (ip) in 2% tween; food given after 30 min, weighed 2 hr later; vs vehicle; read-out: inhibition of feeding (2 hr food intake)
Protocol: Protocol for IP Administration of Compounds in Fasted Long-Evans Male Rats
Male Long Evans rats (85-100 g)were obtained from Harlan (Indianapolis, Ind.) and were given at least a one week acclimation period to Ambients animal care facilities. Animals were individually housed and were provided ad libitum food and water. For testing, rats were fasted for 18-20 hr (overnight) prior to the start of the experiment. On the test day, test compounds or vehicle was administered via the intraperitoneal (i.p.) route of administration. Test compounds were suspended in a 2% tween solution; the 2% tween solution was used as the vehicle treatment (control group). Group sizes for each treatment were 6-8 animals. After 30 min, premeasured food was placed into the cages. Two hours later, the food was weighed again. The difference between 2 hr weight and the premeasured weight was taken as 2 hr food intake.

Male BALB-C mice = test: IP administration of compounds in fasted male BALB-C mice, 2 hr food intake; type: in vivo; conditions: Mus musculus; male BALB-C mice fasted 18-20 hr; 30 mg/kg (ip) in 2% tween; food given after 30 min, weighed 2 hr later; vs vehicle; read-out: inhibition of feeding (2 hr food intake)
From the text: Protocol For IP Administration Of Compounds In Male BALB-C Mice.
Male BALB-C mice (20-25 g)were obtained from Charles Rivers (Wilmington, Mass.) and were given at least a one week acclimation period to Amgen's animal care facilities. Animals were housed 10/cage and were provided ad libitum food and water. For testing, mice were fasted for 18-20 hr (overnight) prior to the start of the experiment. On the day of the experiment, mice were removed from group housing and placed into individual cages (without food). Test compounds or vehicle was then administered via the intraperitoneal (i.p.) route of administration. Test compounds were suspended in a 2% tween solution; the 2% tween solution was used as the vehicle treatment (control group). Group sizes for each treatment were 6-8 animals. After 30 min, premeasured food was placed into the cages. Two hours later, the food was weighed again. The difference between 2 hr weight and the premeasured weight was taken as 2 hr food intake.

Row | Compound | inhibition in vivo at 30 mg/kg (Long-Evans male rats) [%] | inhibition in vivo at 30 mg/kg (Male BALB-C mice) [%] | also measured
1 | COc1ccc(-c2cc3nc(C)nc(N4CCCCC4)c3[nH]2)cc1OC [Example 126, 1,2-Dimethoxy-4-(2-methyl-4-piperidylpyrrolo[4,5-d]pyrimidin-6-yl)benzene Hydrochloride Hydrate] | ≥ 10 | – | –
2 | c1ccc(-c2cc3ncnc(N4CCCCC4)c3[nH]2)cc1 [Example 30, 6-Phenyl-4-piperidylpyrrolo[3,2-d]pyrimidine Hydrochloride] | – | ≥ 10 | –
3 | Cc1nc(N2CCCCC2)c2[nH]c(-c3ccc4ccccc4c3)cc2n1 [Example 160, 2-Methyl-6-(2-naphthyl)-4-piperidylpyrrolo[3,2-d]pyrimidine Hydrochloride Hydrate] | ≥ 10 | – | –
4 | Cc1nc(N2CCCCC2)c2[nH]c(-c3ccc(O)cc3)c(C)c2n1 [Example 137, 4-[2,7-Dimethyl-4-piperidylpyrrolo[4,5-d]pyrimidin-6-yl]phenol Hydrochloride Hydrate] | ≥ 10 | – | –
5 | Cc1nc(N2CC=CC2)c2oc(-c3ccccc3)cc2n1 [Example 216c, 2-Methyl-6-phenyl-4-(3-pyrrolinyl)furano[3,2-d]pyrimidine Hydrochloride Hydrate] | ≥ 10 | – | –
6 | Cc1nc(N2CCCCC2)c2[nH]c(C)cc2n1 [Example 104, 2,6-Dimethyl-4-piperidylpyrrolo[3,2-d]pyrimidine Hydrochloride Hydrate] | ≥ 10 | – | –
7 | CC(=O)c1ccc(-c2cc3nc(C)nc(N4CCCCC4)c3[nH]2)cc1 [Example 150, 1-[4-(2-Methyl-4-piperidylpyrrolo[4,5-d]pyrimidin-6-yl)phenyl]ethan-1-one Hydrochloride Hydrate] | ≥ 10 | – | –
8 | CCOC(=O)c1[nH]c(-c2ccc(F)cc2)cc1N [Example 73a, ethyl 3-amino-5-(4-fluorophenyl)pyrrole-2-carboxylate] | – | ≥ 10 | –
9 | Fc1ccc(-c2cc3nc(C4CC4)nc(N4CCCCC4)c3[nH]2)cc1 [Example 209c, 2-Cyclopropyl-6-(4-fluorophenyl)-4-piperidylpyrrolo[3,2-d]pyrimidine Hydrochloride Hydrate] | ≥ 10 | – | –
10 | Cc1nc(N2CC=CC2)c2[nH]c(-c3ccc(Cl)c(Cl)c3)cc2n1 [Example 200d, 6-(3,4-Dichlorophenyl)-2-methyl-4-(3-pyrrolinyl)pyrrolo[3,2-d]pyrimidine Hydrochloride Hydrate] | ≥ 10 | – | –
11 | Cc1nc(N2CCCCC2)c2[nH]c(-c3ccc4c(c3)OCO4)cc2n1 [Example 114, 5-[2-Methyl-4-piperidylpyrrolo[4,5-d]pyrimidin-6-yl]-2H-benzo[d]1,3-dioxolane Hydrochloride Monohydrate] | – | ≥ 10 | –
12 | Cc1nc(N2CCCCC2)c2[nH]c(-c3ccccc3)c(C)c2n1 [Example 90, 2,7-Dimethyl-6-phenyl-4-piperidylpyrrolo[3,2-d]pyrimidine Hydrochloride Monohydrate] | ≥ 10 | – | –
13 | COc1cc(-c2cc3nc(C)nc(N4CCCCC4)c3[nH]2)cc(OC)c1OC.Cl [Example 143, 1,2,3-Trimethoxy-5-[2-methyl-4-piperidylpyrrolo[4,5-d]pyrimidin-6-yl]benzene Hydrochloride] | ≥ 10 | – | melting point: 275 to 277 °C
14 | Cc1nc(N2CCCCC2)c2[nH]c(-c3cccc(C(F)(F)F)c3)cc2n1 [Example 107, 2-Methyl-4-piperidyl-6-[3-(trifluoromethyl)phenyl]pyrrolo[3,2-d]pyrimidine Hydrochloride Monohydrate] | – | ≥ 10 | –
15 | Cc1nc(-n2cccn2)c2[nH]c(-c3ccccc3)cc2n1 [Example 218, 2-Methyl-6-phenyl-4-pyrazolypyrrolo[3,2-d]pyrimidine Hydrochloride Hydrate] | – | ≥ 10 | –
16 | Cc1nc(N2CCCCC2)c2[nH]c(-c3ccc(F)cc3)c(C)c2n1 [Example 134, 6-(4-Fluorophenyl)-2,7-dimethyl-4-piperidylpyrrolo[3,2-d]pyrimidine Hydrochloride Hydrate] | ≥ 10 | – | –
17 | CCc1nc(N2CCc3ccccc3C2)c2[nH]c(-c3ccccc3)cc2n1 [Example 202, 2-Ethyl-6-phenyl-4-(2-1,2,3,4-tetrahydroisoquinolyl)pyrrolo[3,2-d]pyrimidine Hydrochloride Monohydrate] | ≥ 10 | – | –
18 | Cc1nc(N2CCCCC2)c2[nH]c(-c3ccc4c(c3)CCC4)cc2n1 [Example 130, 6-Indan-5-yl-2-methyl-4-piperidylpyrrolo[3,2-d]pyrimidine Hydrochloride Monohydrate] | – | ≥ 10 | –

Row | Compound | inhibition in vivo at 30 mg/kg (Long-Evans male rats) [%] | inhibition in vivo at 30 mg/kg (Male BALB-C mice) [%] | also measured
19 | Cc1nc(N2CCCCC2)c2[nH]c(-c3ccc(S(C)(=O)=O)cc3)cc2n1 [Example 142, 1-[2-Methyl-4-piperidylpyrrolo[4,5-d]pyrimidin-6-yl]-4-(methylsulfonyl)benzene Hydrochloride Monohydrate] | ≥ 10 | – | –
20 | Cc1nc(N2CCCCC2)c2[nH]c(CCc3ccccc3)cc2n1 [Example 168, 2-Methyl-6-(2-phenylethyl)-4-piperidylpyrrolo[3,2-d]pyrimidine Hydrochloride Hydrate] | ≥ 10 | – | –
21 | CCC1CCCCN1c1nc(C)nc2cc(-c3ccccc3)[nH]c12 (stereo not drawn) [Example 64, 2-Methyl-6-phenyl-4-(2-ethylpiperidinyl)pyrrolo[3,2-d]pyrimidine Hydrochloride Hydrate] | – | ≥ 10 | –
22 | Cc1nc(N2CCCCC2)c2[nH]c(-c3ccc4c(c3)Cc3ccccc3-4)cc2n1 [Example 127, 6-Fluoren-2-yl-2-methyl-4-piperidylpyrrolo[3,2-d]pyrimidine Hydrochloride Hydrate] | ≥ 10 | – | –
23 | CN(C)c1nc(N2CCCCC2)c2[nH]c(-c3ccccc3)cc2n1 [Example 203, Hydrochloride Hydrate] | ≥ 10 | – | –
24 | Cc1nc(N2CCOCC2)c2[nH]c(-c3ccc(F)c(F)c3)cc2n1 [Example 141, 4-[6-(3,4-Difluorophenyl)-2-methylpyrrolo[2,3-e]pyrimidin-4-yl]morpholine Hydrochloride] | ≥ 10 | – | –
25 | CCCCc1cc2nc(C)nc(N3CCCCC3)c2[nH]1 [Example 148, 6-Butyl-2-methyl-4-piperidylpyrrolo[3,2-d]pyrimidine Hydrochloride] | ≥ 10 | – | –
26 | Cc1nc(N2CCCCC2)c2[nH]c(-c3cccc(F)c3)cc2n1 [Example 103, 6-(3-Fluorophenyl)-2-methyl-4-piperidylpyrrolo[3,2-d]pyrimidine Hydrochloride Monohydrate] | – | ≥ 10 | –
27 | Cc1nc(N2CCCCC2)c2[nH]c(-c3ccccc3F)cc2n1 [Example 102, 6-(2-Fluorophenyl)-2-methyl-4-piperidylpyrrolo[3,2-d]pyrimidine Hydrochloride Monohydrate] | ≥ 10 | – | –
28 | Cc1nc(N2CCCCC2)c2[nH]c(C34C[C@H]5C[C@@H](C3)C[C@@H](C4)C5)cc2n1 [Example 81d, 6-Adamantanyl-2-methyl-4-piperidylpyrrolo[3,2-d]pyrimidine Hydrochloride Monohydrate] | – | ≥ 10 | –
29 | Cc1nc(N2CC=CC2)c2[nH]c(-c3ccc(F)cc3)cc2n1 [Example 199, 6-(4-Fluorophenyl)-2-methyl-4-(3-pyrrolinyl)pyrrolo[3,2-d]pyrimidine Hydrochloride Hydrate] | – | ≥ 10 | –
30 | Cc1nc(N2CCc3ccccc32)c2[nH]c(-c3ccccc3)cc2n1 [Example 215, 4-Indolinyl-2-methyl-6-phenylpyrrolo[3,2-d]pyrimidine Hydrochloride Hydrate] | – | ≥ 10 | –
31 | CCCNc1nc(N2CCCCC2)c2[nH]c(-c3ccccc3)cc2n1 [Example 93, (6-Phenyl-4-piperidylpyrrolo[3,2-d]pyrimidine-2-yl)propylamine Hydrochloride] | – | ≥ 10 | –
32 | Cc1nc(N2CCCCC2)c2[nH]c(-c3ccc4c(c3)CCO4)cc2n1 [Example 131, 5-[2-Methyl-4-piperidylpyrrolo[4,5-d]pyrimidin-6-yl]-2,3-dihydrobenzo[b]furan Hydrochloride Hydrate] | – | ≥ 10 | –
33 | Cc1nc(N2CCCCC2)c2[nH]c(-c3ccccn3)cc2n1 [Example 77, 2-Methyl-4-piperidyl-6-(2-pyridyl)pyrrolo[3,2-d]pyrimidine Hydrochloride Hydrate] | – | ≥ 10 | –
34 | Cc1nc(N2CCCCC2)c2[nH]c(-c3cccc(Cl)c3)cc2n1 [Example 70e, 6-(3-Chlorophenyl)-2-methyl-4-piperidylpyrrolo[3,2-d]pyrimidine Hydrochloride Monohydrate] | ≥ 10 | – | –
35 | Cc1nc(N2CCCC2)c2[nH]c(-c3ccccc3)cc2n1 [Example 9, 2-Methyl-6-phenyl-4-pyrrolidinylpyrrolo[3,2-d]pyrimidine] | – | ≥ 10 | –
